# Results from ChEMBL document CHEMBL1201862, “PubChem BioAssay data set” (2004).
# Where a name gives a salt, the structure may show the parent alone. Activity calls are given as the source filed them.
# Experiments:
# [1] = biological target: T1, Ubiquitin-conjugating enzyme E2 N (Homo sapiens, UniProt P61088); assay type: functional;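 note: Dose-response confirmation in a TR-FRET assay detecting UBC13-driven polyubiquitin chain formation, inhibition measured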
# T1 sequence (P61088 whole entry): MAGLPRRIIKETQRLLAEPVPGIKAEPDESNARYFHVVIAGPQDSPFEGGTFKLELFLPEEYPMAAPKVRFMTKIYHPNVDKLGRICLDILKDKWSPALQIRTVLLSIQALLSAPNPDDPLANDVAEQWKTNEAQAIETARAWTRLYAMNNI
# [2] = reduced cellular PGC1a acetyl-lysine signal – cell-based, cherry-picked samples, dose response (AID 720514); assay type: functional;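 note: potency may reflect raised or lowered acetylation signal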
# [3] = A549 cell cytotoxicity, dose response, cytotoxicity control, plate reader, cherry-pick, antagonist series (AID 743412); assay type: functional, cell-based
# [4] = toxicity toward HepG2 liver cells – cell-based, plate reader, cherry-pick, antagonist series, cytotoxicity control, dose response (AID 743416); assay type: functional
# [5] = blockers of bursicon-stimulated LGR2 cAMP reporter – cell-based, HEK293, CRE-luciferase reporter, cherry pick, set 2, dose response (AID 743343); assay type: functional;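 note: transfected cells were stimulated with diluted bursicon conditioned medium after compound addition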
# [6] = blockade of melanocortin 4 receptor signaling – cell-based, plate reader, cherry pick, counter-screen for LGR2 antagonist project, dose response (AID 743444); assay type: functional
# [7] = viability loss in HEK293 cells – cell-based, plate reader, cherry-picked samples, cytotoxicity control, dose response (AID 743446); assay type: functional
# [8] = biological target: T2, Histone-lysine N-methyltransferase NSD2 (Homo sapiens, UniProt O96028); assay type: biochemical
# T2 sequence (O96028 whole entry): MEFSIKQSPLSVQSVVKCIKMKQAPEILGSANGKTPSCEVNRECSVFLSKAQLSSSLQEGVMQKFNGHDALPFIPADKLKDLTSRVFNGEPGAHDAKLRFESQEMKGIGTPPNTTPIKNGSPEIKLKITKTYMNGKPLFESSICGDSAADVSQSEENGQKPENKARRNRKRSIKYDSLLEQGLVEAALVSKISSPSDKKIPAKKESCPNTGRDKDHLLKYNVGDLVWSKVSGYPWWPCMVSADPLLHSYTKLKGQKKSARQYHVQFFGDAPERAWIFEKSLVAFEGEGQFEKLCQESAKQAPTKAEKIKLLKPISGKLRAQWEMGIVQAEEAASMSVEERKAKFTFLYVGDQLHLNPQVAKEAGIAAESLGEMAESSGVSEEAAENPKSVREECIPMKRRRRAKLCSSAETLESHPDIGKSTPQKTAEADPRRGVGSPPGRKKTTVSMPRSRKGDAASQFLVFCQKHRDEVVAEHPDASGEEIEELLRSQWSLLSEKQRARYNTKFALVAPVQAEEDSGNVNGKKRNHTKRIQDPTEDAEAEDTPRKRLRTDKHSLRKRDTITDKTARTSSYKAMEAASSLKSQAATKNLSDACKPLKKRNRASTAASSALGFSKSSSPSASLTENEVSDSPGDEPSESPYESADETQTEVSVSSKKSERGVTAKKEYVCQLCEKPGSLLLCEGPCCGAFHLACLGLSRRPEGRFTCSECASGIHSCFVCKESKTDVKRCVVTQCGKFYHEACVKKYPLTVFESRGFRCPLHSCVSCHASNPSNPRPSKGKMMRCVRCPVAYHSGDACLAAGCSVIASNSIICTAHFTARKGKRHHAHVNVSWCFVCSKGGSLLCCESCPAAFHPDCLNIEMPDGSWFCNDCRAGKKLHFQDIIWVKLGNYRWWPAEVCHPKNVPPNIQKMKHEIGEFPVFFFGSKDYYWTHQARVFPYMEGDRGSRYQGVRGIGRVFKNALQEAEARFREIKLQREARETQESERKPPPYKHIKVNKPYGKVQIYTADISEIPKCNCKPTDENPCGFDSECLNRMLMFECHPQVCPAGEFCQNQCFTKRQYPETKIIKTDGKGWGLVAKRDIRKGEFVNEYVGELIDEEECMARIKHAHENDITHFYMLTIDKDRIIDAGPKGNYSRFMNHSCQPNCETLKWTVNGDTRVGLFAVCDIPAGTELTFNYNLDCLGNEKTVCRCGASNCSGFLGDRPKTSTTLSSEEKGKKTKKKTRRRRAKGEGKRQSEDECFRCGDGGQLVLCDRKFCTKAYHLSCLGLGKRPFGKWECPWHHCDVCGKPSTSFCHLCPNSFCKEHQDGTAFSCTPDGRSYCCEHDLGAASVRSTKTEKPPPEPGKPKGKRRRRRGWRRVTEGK
# Fatty acid synthase [9] = biological target: T3, Fatty acid synthase (Homo sapiens, UniProt P49327); experiment: inhibition of human FAS-TE enzyme activity – biochemical, endpoint fluorescence intensity, uHTS hits, dose response (AID 624327); assay type: functional;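 note: fluorescence from hydrolysis of an O-methyl fluorescein acyl ester substrate by the enzyme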
# T3 sequence (P49327 whole entry): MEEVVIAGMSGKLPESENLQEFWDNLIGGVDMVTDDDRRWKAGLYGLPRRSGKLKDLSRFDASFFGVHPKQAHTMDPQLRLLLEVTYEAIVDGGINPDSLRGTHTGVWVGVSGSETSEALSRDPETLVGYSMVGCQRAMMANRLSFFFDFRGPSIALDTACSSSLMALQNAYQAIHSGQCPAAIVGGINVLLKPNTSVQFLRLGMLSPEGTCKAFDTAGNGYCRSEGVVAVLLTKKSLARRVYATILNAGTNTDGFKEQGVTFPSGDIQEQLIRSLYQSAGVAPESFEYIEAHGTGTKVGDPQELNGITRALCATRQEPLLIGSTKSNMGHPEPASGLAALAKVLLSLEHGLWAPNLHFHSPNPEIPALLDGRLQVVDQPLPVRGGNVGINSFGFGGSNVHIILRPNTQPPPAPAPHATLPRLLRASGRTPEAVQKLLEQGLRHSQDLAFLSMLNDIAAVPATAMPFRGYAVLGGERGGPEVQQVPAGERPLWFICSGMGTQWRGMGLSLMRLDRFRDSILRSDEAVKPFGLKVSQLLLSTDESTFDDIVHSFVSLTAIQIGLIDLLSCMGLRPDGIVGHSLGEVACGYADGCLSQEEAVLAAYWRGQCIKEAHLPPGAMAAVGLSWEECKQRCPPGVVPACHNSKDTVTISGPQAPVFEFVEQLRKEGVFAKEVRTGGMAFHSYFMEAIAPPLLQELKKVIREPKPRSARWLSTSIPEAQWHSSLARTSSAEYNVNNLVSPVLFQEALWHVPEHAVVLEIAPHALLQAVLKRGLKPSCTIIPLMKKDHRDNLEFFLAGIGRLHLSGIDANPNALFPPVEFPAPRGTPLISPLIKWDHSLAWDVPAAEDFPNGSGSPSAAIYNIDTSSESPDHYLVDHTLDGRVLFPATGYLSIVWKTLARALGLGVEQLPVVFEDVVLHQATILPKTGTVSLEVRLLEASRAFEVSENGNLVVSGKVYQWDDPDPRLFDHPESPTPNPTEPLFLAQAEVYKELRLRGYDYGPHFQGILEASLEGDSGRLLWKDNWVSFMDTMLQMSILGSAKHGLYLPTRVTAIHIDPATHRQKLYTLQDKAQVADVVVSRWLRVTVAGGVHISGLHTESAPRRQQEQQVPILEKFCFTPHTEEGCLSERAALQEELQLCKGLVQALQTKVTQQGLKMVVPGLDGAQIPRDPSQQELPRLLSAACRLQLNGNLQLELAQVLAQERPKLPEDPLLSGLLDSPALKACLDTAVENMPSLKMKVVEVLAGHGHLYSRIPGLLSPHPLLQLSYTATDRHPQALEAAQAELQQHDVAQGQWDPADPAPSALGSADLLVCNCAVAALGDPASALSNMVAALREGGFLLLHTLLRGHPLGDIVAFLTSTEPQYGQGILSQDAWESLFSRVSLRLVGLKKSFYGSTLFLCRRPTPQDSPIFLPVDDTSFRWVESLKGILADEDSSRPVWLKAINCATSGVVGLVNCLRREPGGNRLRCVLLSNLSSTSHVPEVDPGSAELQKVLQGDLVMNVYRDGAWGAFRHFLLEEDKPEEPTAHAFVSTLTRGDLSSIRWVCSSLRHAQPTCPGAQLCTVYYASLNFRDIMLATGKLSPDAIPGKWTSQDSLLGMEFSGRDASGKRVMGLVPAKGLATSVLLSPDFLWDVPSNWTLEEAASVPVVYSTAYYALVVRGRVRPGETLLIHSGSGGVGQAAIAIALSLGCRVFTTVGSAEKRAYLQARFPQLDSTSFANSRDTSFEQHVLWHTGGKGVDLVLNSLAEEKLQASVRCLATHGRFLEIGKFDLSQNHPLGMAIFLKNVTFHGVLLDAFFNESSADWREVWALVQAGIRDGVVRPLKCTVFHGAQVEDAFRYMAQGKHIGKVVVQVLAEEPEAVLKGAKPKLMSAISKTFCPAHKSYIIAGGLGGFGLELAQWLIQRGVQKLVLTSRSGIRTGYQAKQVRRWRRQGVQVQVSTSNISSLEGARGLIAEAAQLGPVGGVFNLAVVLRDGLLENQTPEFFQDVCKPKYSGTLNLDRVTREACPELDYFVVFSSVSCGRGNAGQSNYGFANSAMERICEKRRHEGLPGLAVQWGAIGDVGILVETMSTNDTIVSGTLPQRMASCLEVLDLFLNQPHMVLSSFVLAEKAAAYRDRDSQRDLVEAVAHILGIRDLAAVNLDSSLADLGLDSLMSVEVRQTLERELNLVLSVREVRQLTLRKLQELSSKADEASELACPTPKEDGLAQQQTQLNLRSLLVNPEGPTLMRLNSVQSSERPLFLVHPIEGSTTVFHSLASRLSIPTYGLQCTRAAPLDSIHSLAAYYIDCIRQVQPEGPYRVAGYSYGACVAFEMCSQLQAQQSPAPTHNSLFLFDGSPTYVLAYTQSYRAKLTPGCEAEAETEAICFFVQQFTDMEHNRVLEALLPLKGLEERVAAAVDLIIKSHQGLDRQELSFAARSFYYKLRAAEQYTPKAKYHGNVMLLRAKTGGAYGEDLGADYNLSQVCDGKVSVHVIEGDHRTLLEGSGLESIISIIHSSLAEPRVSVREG
# Fatty acid synthase [10] = biological target: T3, Fatty acid synthase; experiment: inhibition of human FAS-TE enzyme activity – biochemical, kinetic fluorescence intensity, dose response (AID 624326); assay type: functional;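 note: rate of fluorescence rise from hydrolysis of a fluorogenic O-methyl fluorescein ester substrate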
# [11] = T. cruzi growth inhibition in host cells, dose response, cell-based, plate reader, dry powder, set 2 (AID 652275); assay type: functional
# [12] = biological target: T4, Small ubiquitin-related modifier 1 (Homo sapiens, UniProt P63165); experiment: SUMO1 protein interaction blockers, potency – biochemical, fluorescence polarization, uHTS hits, dose response (AID 624382); assay type: functional; conditions: read-out: IC50_Mean
# T4 sequence (P63165 whole entry): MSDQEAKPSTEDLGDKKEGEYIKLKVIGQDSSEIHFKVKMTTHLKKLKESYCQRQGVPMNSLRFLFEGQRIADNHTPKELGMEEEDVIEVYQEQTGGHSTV
# [13] = biological target: T4, Small ubiquitin-related modifier 1; experiment: SUMO1 protein-protein binding blockers, potency – biochemical, FRET, dose response (AID 624383); assay type: functional; conditions: read-out: IC50_Mean
# [14] = biological target: T5, DNA repair and recombination protein RAD54-like (Homo sapiens, UniProt Q92698); experiment: RAD54 Holliday junction migration blockers – biochemical, fluorescence, cherry-picked samples, dose series, confirmation (AID 651657); assay type: functional
# T5 sequence (Q92698 whole entry): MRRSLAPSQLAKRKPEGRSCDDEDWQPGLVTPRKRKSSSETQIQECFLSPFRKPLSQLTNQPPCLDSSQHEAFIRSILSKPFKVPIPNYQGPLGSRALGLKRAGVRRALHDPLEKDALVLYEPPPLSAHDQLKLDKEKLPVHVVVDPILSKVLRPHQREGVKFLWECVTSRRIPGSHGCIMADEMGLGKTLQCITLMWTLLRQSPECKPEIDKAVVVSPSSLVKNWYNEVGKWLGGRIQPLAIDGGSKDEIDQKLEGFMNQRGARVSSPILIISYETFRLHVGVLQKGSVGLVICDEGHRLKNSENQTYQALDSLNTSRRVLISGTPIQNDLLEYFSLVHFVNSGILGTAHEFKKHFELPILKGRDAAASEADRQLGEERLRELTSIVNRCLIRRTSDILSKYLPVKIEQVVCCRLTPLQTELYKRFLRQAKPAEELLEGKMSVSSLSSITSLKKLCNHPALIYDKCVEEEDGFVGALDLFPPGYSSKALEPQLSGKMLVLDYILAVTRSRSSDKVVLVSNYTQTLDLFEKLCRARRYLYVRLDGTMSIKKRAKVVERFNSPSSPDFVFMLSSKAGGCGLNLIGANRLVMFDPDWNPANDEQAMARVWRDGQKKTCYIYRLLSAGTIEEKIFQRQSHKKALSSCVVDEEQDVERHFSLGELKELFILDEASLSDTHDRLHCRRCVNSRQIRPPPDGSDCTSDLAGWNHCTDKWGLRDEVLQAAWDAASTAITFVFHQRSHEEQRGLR
# [15] = biological target: T6, DNA repair protein RAD52 homolog (Homo sapiens, UniProt P43351); assay type: functional, biochemical
# T6 sequence (P43351 whole entry): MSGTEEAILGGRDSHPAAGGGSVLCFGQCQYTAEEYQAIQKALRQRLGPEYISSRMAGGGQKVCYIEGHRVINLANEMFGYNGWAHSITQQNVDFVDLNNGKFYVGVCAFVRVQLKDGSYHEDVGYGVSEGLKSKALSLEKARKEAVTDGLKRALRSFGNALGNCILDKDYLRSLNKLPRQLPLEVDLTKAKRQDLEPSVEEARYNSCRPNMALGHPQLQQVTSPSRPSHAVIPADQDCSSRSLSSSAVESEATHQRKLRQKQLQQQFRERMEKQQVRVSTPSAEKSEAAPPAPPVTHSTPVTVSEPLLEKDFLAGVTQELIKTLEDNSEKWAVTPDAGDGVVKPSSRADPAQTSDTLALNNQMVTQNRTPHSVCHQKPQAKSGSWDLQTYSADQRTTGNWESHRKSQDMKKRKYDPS
# [16] = inhibition of ADAM10 peptide cleavage – biochemical, FRET peptide substrate, recombinant human ADAM10, selectivity assay for ADAM17 exosite inhibitor project, dose response (AID 743259);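 note: ADAM10 enzyme cleaving a FRET peptide substrate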
# [17] = Luminescence Cell-Based Dose Confirmation HTS to Identify Activators of 5'UTR Stem-Loop Driven Alpha-Synuclein mRNA Translation in H4 Neuroglioblastoma Cells. [Related pubchem assays: 1829 (Project Summary), 1814 (Primary HTS)]; assay type: functional
# [18] = Luminescence Cell-Based Dose Response HTS to Identify Activators of Luciferase Translation or Activity in H4 […] Cells. [Related pubchem assays: 1829 (Project Summary), 1814 (Primary HTS)]; assay type: functional
# H4 = experiment: Luminescence Cell-Based Dose Response HTS to Identify Activators of 5'UTR Stem-Loop Driven Prion Protein mRNA Translation in H4 Neuroglioblastoma Cells. [Related pubchem assays: 1829 (Project Summary), 1814 (Primary HTS)]; assay type: functional; conditions: Homo sapiens
# [19] = viability loss in HeLa cells – cytotoxicity control for MgcRacGAP inhibitor project, dose response (AID 624300); assay type: functional
# [20] = biological target: T7, Rac GTPase-activating protein 1 (Homo sapiens, UniProt Q9H0H5); experiment: blockers of MgcRacGAP-driven Rac1 GTP hydrolysis – biochemical, ADP Hunter fluorescence, primary and confirmatory, confirmation (AID 624330); assay type: functional
# T7 sequence (Q9H0H5 whole entry): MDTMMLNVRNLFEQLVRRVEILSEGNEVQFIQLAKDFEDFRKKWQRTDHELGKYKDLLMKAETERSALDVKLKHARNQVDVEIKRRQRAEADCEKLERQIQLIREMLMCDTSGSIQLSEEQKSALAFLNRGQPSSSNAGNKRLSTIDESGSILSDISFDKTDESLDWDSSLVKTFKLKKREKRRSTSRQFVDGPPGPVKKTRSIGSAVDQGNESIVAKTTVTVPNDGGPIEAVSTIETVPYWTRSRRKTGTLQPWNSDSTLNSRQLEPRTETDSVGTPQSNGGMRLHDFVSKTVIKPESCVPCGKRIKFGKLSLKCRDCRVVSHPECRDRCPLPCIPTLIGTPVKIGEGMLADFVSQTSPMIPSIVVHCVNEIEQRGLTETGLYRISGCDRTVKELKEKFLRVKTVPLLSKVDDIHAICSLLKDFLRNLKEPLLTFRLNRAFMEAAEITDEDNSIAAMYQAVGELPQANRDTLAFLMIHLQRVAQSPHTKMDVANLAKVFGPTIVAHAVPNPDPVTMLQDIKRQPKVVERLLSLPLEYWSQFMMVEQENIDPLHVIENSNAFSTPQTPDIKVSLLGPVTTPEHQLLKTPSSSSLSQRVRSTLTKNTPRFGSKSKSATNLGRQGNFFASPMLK
smiles,measurement,setting,value
OC(c1cc(C(F)(F)F)nc2c(C(F)(F)F)cccc12)C1CCCCN1 (stereo unspecified) [MEFLOQUINE HYDROCHLORIDE],IC50,[1],> 20 µM (inactive)
same,AC50,[2],7.13 µM (active)
same,AC50,[3],8.37 µM (active)
same,AC50,[4],11.6 µM (active)
same,AC50,[5],9.96 µM (active)
same,AC50,[7],5.19 µM (active)
Cc1cc(/C=C2\C(=O)NC(=O)N(Cc3ccccc3Cl)C2=O)c(C)n1-c1ccc(C(=O)O)cc1,AC50,[8],> 20 µM (inactive)
CN(Cc1ccccc1)C(=O)COC(=O)c1cc([N+](=O)[O-])ccc1N1CCOCC1,IC50,Fatty acid synthase [9],0.539 µM (active)
same,IC50,Fatty acid synthase [10],0.617 µM (active)
O=C(C1CCC1)N1CCCCN2[C@@H](CO)[C@H](c3ccc(-c4cccc(F)c4)cc3)[C@@H]2C1,AC50,[11],0.227 µM (active)
CN(C)CCNC(=O)c1cccc(-c2cnc3c(NC=O)cc(-c4cccs4)cn23)c1,IC50,[12],> 66.6 µM (inactive)
same,IC50,[13],1.82 µM (active)
same,AC50,[14],15.6 µM (active)
same,AC50,[15],8.36 µM (active)
COc1cc(C(c2c(C)n[nH]c2O)c2c(C)n[nH]c2O)ccc1OCc1ccc([N+](=O)[O-])cc1,IC50,[16],> 23.2 µM (inactive)
CCn1c(SC(C)C)nnc1-c1cc(-c2ccccc2)sc1N,EC50,[17],> 120 µM (not active)
same,EC50,[18],> 120 µM (not active)
same,EC50,H4,> 120 µM (not active)
same,CC50,[19],100 µM (active)
same,IC50,[20],31.1 µM (active)
